According to the NIST ThermoML archive (doi:10.1021/je400402n):
± gives the expanded uncertainty stated by the source.

Conditions: 101 kPa, Liquid, HP 4194A impedance-gain phase analyzer

C[S+](C)[O-] [dimethyl sulfoxide]
Conditions	electrical conductivity [S/m]
293.15 K	0.000188 ± 3.8e-06
295.15 K	0.000201 ± 4e-06
297.15 K	0.000211 ± 4.2e-06
299.15 K	0.000225 ± 4.5e-06
301.15 K	0.000236 ± 4.7e-06
303.15 K	0.000248 ± 5e-06
305.15 K	0.000262 ± 5.2e-06
307.15 K	0.000274 ± 5.5e-06
309.15 K	0.000287 ± 5.7e-06
311.15 K	0.0003 ± 6e-06
313.15 K	0.000315 ± 6.3e-06
315.15 K	0.000328 ± 6.6e-06
317.15 K	0.000341 ± 6.8e-06
319.15 K	0.000355 ± 7.1e-06
321.15 K	0.000369 ± 7.4e-06
323.15 K	0.000384 ± 7.7e-06
325.15 K	0.000399 ± 8e-06
327.15 K	0.000419 ± 8.4e-06
329.15 K	0.000437 ± 8.7e-06
331.15 K	0.000455 ± 9.1e-06
333.15 K	0.000474 ± 9.5e-06
